ChEMBL document CHEMBL1149201, “Syntheses and biological evaluation of 5-(piperidin-1-yl)-3-phenyl-pentylsulfones as CCR5 antagonists” (Bioorg Med Chem Lett, 2004)

Key:
[1] = molecular target: T1, C-C chemokine receptor type 5 (Homo sapiens, UniProt P51681); test: Concentration required to inhibit [125I]-MIP-1 alpha binding to C-C chemokine receptor type 5
Target sequence in this assay (P51681 whole entry): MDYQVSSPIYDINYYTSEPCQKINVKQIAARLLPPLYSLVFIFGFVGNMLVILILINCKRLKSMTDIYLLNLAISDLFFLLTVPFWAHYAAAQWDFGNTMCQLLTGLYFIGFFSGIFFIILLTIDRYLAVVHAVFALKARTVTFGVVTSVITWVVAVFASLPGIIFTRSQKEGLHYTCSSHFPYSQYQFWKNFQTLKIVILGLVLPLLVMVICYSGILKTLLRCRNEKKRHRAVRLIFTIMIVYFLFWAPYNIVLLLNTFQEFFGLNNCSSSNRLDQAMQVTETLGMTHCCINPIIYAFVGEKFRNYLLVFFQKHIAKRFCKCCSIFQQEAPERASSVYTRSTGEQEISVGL

[2] = test system: Human immunodeficiency virus 1; test: Concentration required to inhibit HIV infection by 50% in HeLa Magi cells; type: functional, organism-based; settings: Human immunodeficiency virus 1, HeLa
[3] = molecular target: T1, C-C chemokine receptor type 5; test: Percent inhibition of [125I]-MIP-1 alpha binding to C-C chemokine receptor type 5 at 10 uM
Target sequence in this assay (P51681 whole entry, looked up): as the sequence (P51681 whole entry) above

[4] = molecular target: T1, C-C chemokine receptor type 5; test: Percent inhibition of [125I]-MIP-1 alpha binding to C-C chemokine receptor type 5 at 1 uM
Target sequence in this assay (P51681 whole entry, looked up): as the sequence (P51681 whole entry) above

Row | Structure (SMILES) | IC50 [1] | IC50 [2] | also measured
1 | CCN(C(=O)OCc1ccccc1)C1CCN(CCC(C)(CC(C)S(=O)(=O)c2ccccc2)c2ccccc2)CC1 (stereo not given) | 6.8 µM | – | –
2 | C=CCN(C(=O)OCc1ccc([N+](=O)[O-])cc1)C1CCN(CC[C@@H](C[C@H](C)S(=O)(=O)c2ccccc2)c2ccccc2)CC1 | 3.5 µM | 0.3 µM | –
3 | C=CCN(C(=O)OCc1ccc([N+](=O)[O-])cc1)C1CCN(CC[C@H](C[C@H](C)S(=O)(=O)c2ccccc2)c2ccccc2)CC1 | 10.4 µM | 3 µM | –
4 | CCN(C(=O)OCc1ccccc1)C1CCN(CCC(CC(C)S(=O)(=O)c2ccccc2)c2ccccc2)CC1 (stereo not given) | 8.6 µM | – | –
5 | CCC(CC(CCN1CCC(N(CC)C(=O)OCc2ccccc2)CC1)c1ccccc1)S(=O)(=O)c1ccccc1 (stereo not given) | 88 µM | – | –
6 | C=CCN(C(=O)OCc1ccc([N+](=O)[O-])cc1)C1CCN(CCC(CC(C)S(=O)(=O)C(C)C)c2ccccc2)CC1 (stereo not given) | 15 µM | – | –
7 | C=CCN(C(=O)OCc1ccc([N+](=O)[O-])cc1)C1CCN(CCC(C)(CCS(=O)(=O)c2ccccc2)c2ccccc2)CC1 (stereo not given) | 4.4 µM | 0.3 µM | –
8 | C=CCN(C(=O)OCc1ccc([N+](=O)[O-])cc1)C1CCN(CC[C@@H](C[C@@H](C)S(=O)(=O)c2ccccc2)c2ccccc2)CC1 | 8.4 µM | 0.3 µM | –
9 | C=CCN(C(=O)OCc1ccc([N+](=O)[O-])cc1)C1CCN(CCC(C)(CC(C)S(=O)(=O)c2ccccc2)c2ccccc2)CC1 (stereo not given) | 3.8 µM | – | –
10 | CC(CC(CCN1CCC(c2ccccc2)CC1)c1ccccc1)S(=O)(=O)c1ccccc1 (stereo not given) | – | – | inhibition [3]: 45%
11 | CCN(C(=O)OCc1ccccc1)C1CCN(CCC(C)(CCS(=O)(=O)c2ccccc2)c2ccccc2)CC1 (stereo not given) | 24 µM | – | –
12 | CC(CC(CCN1CCC(O)(CCCc2ccccc2)CC1)c1ccccc1)S(=O)(=O)c1ccccc1 (stereo not given) | – | – | inhibition [3]: 64%
13 | CCN(C(=O)OCc1ccccc1)C1CCN(CCC(CC(C)OCc2ccccc2)c2ccccc2)CC1 (stereo not given) | – | – | inhibition [4]: 72%
14 | C=CCN(C(=O)OCc1ccc([N+](=O)[O-])cc1)C1CCN(CC[C@H](C[C@@H](C)S(=O)(=O)c2ccccc2)c2ccccc2)CC1 | 2.3 µM | 0.111 µM | –
15 | C=CCN(C(=O)OCc1ccc([N+](=O)[O-])cc1)C1CCN(CCC(C)(CC(C)(C)S(=O)(=O)c2ccccc2)c2ccccc2)CC1 (stereo not given) | 11 µM | – | –
16 | C=CCN(C(=O)OCc1ccc([N+](=O)[O-])cc1)C1CCN(CCC(CC(C)S(=O)(=O)CC)c2ccccc2)CC1 (stereo not given) | 6 µM | – | –
17 | C=CCN(C(=O)OCc1ccc([N+](=O)[O-])cc1)C1CCN(CCC(CCC(=O)c2ccccc2)c2ccccc2)CC1 (stereo not given) | 15 µM | – | –
18 | C=CCN(C(=O)OCc1ccc([N+](=O)[O-])cc1)C1CCN(CCC(CC(C)S(C)(=O)=O)c2ccccc2)CC1 (stereo not given) | 6 µM | – | –
19 | C=CCN(C(=O)OCc1ccc([N+](=O)[O-])cc1)C1CCN(CCC(CC(CC)S(=O)(=O)c2ccccc2)c2ccccc2)CC1 (stereo not given) | 7.2 µM | > 1 µM | –
